From PubChem BioAssay (NCI)
“And” between values parts separate entries of the source, which are not always exact repeats. Equal entries are not always repeated.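 48-hour exposure; five concentrations; linearly interpolated endpoints. GI50 = concentration required for 50% inhibition of growth. TGI: concentration producing complete growth inhibition.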

Experiments:
Test in all cases: NCI-60 cell line screen, 48 h
A549 NSCLC = test system: A549 NSCLC
CAKI-1 renal = test system: CAKI-1 renal
EKVX NSCLC = test system: EKVX NSCLC
HCT-15 colon = test system: HCT-15 colon
MALME-3M melanoma = test system: MALME-3M melanoma
MDA-MB-231 breast = test system: MDA-MB-231 breast
MDA-MB-435 = test system: MDA-MB-435
NCI-H23 lung = test system: NCI-H23 lung
SK-MEL-2 melanoma = test system: SK-MEL-2 melanoma
UACC-62 melanoma = test system: UACC-62 melanoma
SK-MEL-28 melanoma = test system: SK-MEL-28 melanoma

SMILES | TGI (A549 NSCLC) | TGI (CAKI-1 renal) | TGI (EKVX NSCLC) | TGI (HCT-15 colon) | TGI (MALME-3M melanoma) | TGI (MDA-MB-231 breast) | TGI (MDA-MB-435) | TGI (NCI-H23 lung) | TGI (SK-MEL-2 melanoma) | TGI (UACC-62 melanoma) | TGI (SK-MEL-28 melanoma) | GI50 (EKVX NSCLC) | GI50 (HCT-15 colon) | GI50 (MDA-MB-231 breast) | GI50 (MDA-MB-435) | GI50 (NCI-H23 lung) | GI50 (SK-MEL-28 melanoma) | GI50 (UACC-62 melanoma) | GI50 (MALME-3M melanoma)
O=P1(c2ccccc2)C2=CCC=CC2C(c2ccccc2)N1Cc1ccccc1 (stereo not drawn) | 32.3 µM | 27 µM | 28.7 µM | 28.1 µM | 32.9 µM | 33.6 µM | 29.8 µM | 24.8 µM | 29.9 µM | 21.7 µM | – | – | – | – | – | – | – | – | –
CN1B(c2ccccc2)N(C)C(=O)N(C)C1=O | > 100 µM | > 100 µM | > 100 µM | > 100 µM | > 100 µM | – | > 100 µM | > 100 µM | > 100 µM | > 100 µM | – | – | – | – | – | – | – | – | –
CC[C@H](C)C1=C(OC(C)=O)[N@+]2([O-])Oc3ccc(-c4c(OC(C)=O)c(OC(C)=O)c(-c5ccc(OC(C)=O)cc5)c(OC(C)=O)c4OC(C)=O)cc3O[C@]2([C@@H](C)CC)C(=O)N1OC(C)=O | 41.6 µM | > 50 µM | 22.5 µM | > 50 µM | > 50 µM | > 50 µM | > 50 µM | > 50 µM | 24.1 µM | 17.7 µM | > 50 µM | – | – | – | – | – | – | – | –
Cc1cc(C)c(N=Nc2c(O)c(S(=O)(=O)O)cc3cc(S(=O)(=O)O)ccc23)cc1C | > 100 µM | > 100 µM | > 100 µM | > 100 µM | > 100 µM | > 100 µM | > 100 µM | > 100 µM | > 100 µM | > 100 µM | > 100 µM | – | – | – | – | – | – | – | –
CC(C)N(C(C)C)P(OCCC#N)OC1CC(n2cnc3c(=O)[nH]cnc32)OC1COC(=O)NCCCCCCNC(=O)OC(C)(C)c1ccc(-c2ccccc2)cc1 (stereo not drawn) | > 100 µM | > 100 µM | > 100 µM | > 100 µM | 89.4 µM | – | – | 50.5 µM | > 100 µM | 35.3 µM | 57 µM | – | – | – | – | – | – | – | –
CC(=O)C1(O)Cc2c(O)c3c(c(O)c2C(OC2CC(N)C(O)C(C)O2)C1)C(=O)c1ccccc1C3=O (stereo not drawn) | 0.338 µM | – | 0.811 µM | 0.52 µM and 0.348 µM | 0.0666 µM | 1.22 µM | 0.389 µM and 0.47 µM | 0.12 µM and 0.046 µM | – | 0.306 µM and 0.0842 µM | 0.49 µM and 0.367 µM | 0.0826 µM | 0.0156 µM | 0.0948 µM | 0.0674 µM | < 0.012 µM | 0.151 µM and 0.049 µM | < 0.0123 µM | –
CCN(CC)CCNc1ccc2ncn3c4cc(=O)ccc4c(O)c1c23 | 12.1 µM | 13.4 µM | 23 µM | 17 µM | 14.9 µM | – | – | 14.6 µM | 21.7 µM | 14 µM | 16.9 µM | – | – | – | – | – | – | – | –
C#CCOC(=O)C(N)CCSC (stereo not drawn) | > 100 µM | > 100 µM | > 100 µM | – | > 100 µM | > 100 µM | > 100 µM | > 100 µM | > 100 µM | > 100 µM | > 100 µM | – | – | – | – | – | – | – | –
COc1ccccc1N=C1SCCN1C(=S)Nc1ccc(S(=O)(=O)/N=C/N(C)C)cc1 | > 100 µM | > 100 µM | 63.2 µM | > 100 µM | – | > 100 µM | 76.9 µM | 95.9 µM | – | 75.9 µM | > 100 µM | – | – | – | – | – | – | – | –
CC1(C)c2ccccc2C(O)C12CCC(=O)CC2 (stereo not drawn) | 93.9 µM | – | > 100 µM | > 100 µM | > 100 µM | > 100 µM | > 100 µM | > 100 µM | > 100 µM | > 100 µM | > 100 µM | – | – | – | – | – | – | – | –
OC1c2ccccc2C(O)C2OC12 (stereo not drawn) | > 100 µM | > 100 µM | – | > 100 µM | > 100 µM | > 100 µM | > 100 µM | > 100 µM | > 100 µM | > 100 µM | > 100 µM | – | – | – | – | – | – | – | –
C=CC1(c2ccc(OC)cc2)OCCCO1 | > 100 µM | – | 34.6 µM | > 100 µM | > 100 µM | > 100 µM | > 100 µM | > 100 µM | > 100 µM | > 100 µM | > 100 µM | – | – | – | – | – | – | – | –
c1ccc(CCn2cncn2)cc1 | > 100 µM | – | > 100 µM | > 100 µM | > 100 µM | – | – | > 100 µM | – | > 100 µM | > 100 µM | – | – | – | – | – | – | – | –
O=C1NC2(C=Cc3c(ccc4ccccc34)O2)Oc2ccccc21 (stereo not drawn) | > 100 µM | – | 82.3 µM | 71.2 µM | > 100 µM | – | – | 92.3 µM | 56.5 µM | > 100 µM | > 100 µM | – | – | – | – | – | – | – | –
COC(=O)C1C2CC3C(OC(=O)C31)C2OC(=O)[C@](OC)(c1ccccc1)C(F)(F)F (stereo partly drawn) | > 100 µM | > 100 µM | > 100 µM | > 100 µM | > 100 µM | – | – | > 100 µM | > 100 µM | – | > 100 µM | – | – | – | – | – | – | – | –
O=C1N[C@@H](COc2ccc(C=Nc3ccc(CCc4ccc(N=Cc5ccc(OC[C@@H]6COC(=O)N6)cc5)cc4)cc3)cc2)CO1 | > 100 µM | > 100 µM | > 100 µM | > 100 µM | > 100 µM | > 100 µM | > 100 µM | – | > 100 µM | > 100 µM | > 100 µM | – | – | – | – | – | – | – | –
Cc1sc2nc3n(c(=O)c2c1C)N=C(c1ccc([N+](=O)[O-])cc1)CS3 | > 100 µM | > 100 µM | > 100 µM | > 100 µM | > 100 µM | > 100 µM | > 100 µM | > 100 µM | – | > 100 µM | > 100 µM | – | – | – | – | – | – | – | –
CC(=O)n1ccc2c(Cl)ncnc21 | > 100 µM | > 100 µM | > 100 µM | > 100 µM | – | – | – | > 100 µM | > 100 µM | > 100 µM | > 100 µM | – | – | – | – | – | – | – | –
COC[C@@H](Cc1ccc(OC)c(OC)c1)[C@@H](COC)Cc1ccc(OC)c(OC)c1 | > 100 µM | – | > 100 µM | > 100 µM | > 100 µM | – | – | > 100 µM | > 100 µM | > 100 µM | > 100 µM | – | – | – | – | – | – | – | –
CCC1(O)CC(OC2CC(N(C)C)C(OC3CC(O)C(OC4CCC(=O)C(C)O4)C(C)O3)C(C)O2)c2c(O)c3c(c(O)c2C1C(=O)OC)C(=O)c1cccc(O)c1C3=O (stereo not drawn) | – | 0.0098 µM | – | 0.0543 µM and 0.09 µM | 0.0667 µM and 0.0267 µM | 0.28 µM and 0.229 µM | 0.101 µM | 0.112 µM and 0.031 µM | 0.0247 µM | 0.0235 µM | 0.0837 µM and 0.0571 µM | – | – | – | – | – | – | – | 0.0106 µM
O=[N+]([O-])c1cc(Cl)ccc1S(=O)(=O)N1CCCc2cc(Cl)ccc21 | > 100 µM | > 100 µM | > 100 µM | > 100 µM | > 100 µM | > 100 µM | > 100 µM | – | > 100 µM | > 100 µM | > 100 µM | – | – | – | – | – | – | – | –
